The record followed here is ChEMBL document CHEMBL3507680, “University of Dundee, Gates Library screen for HepG2 cell viability”.

Each structure is given as a SMILES string.

A short description of this data set: Human HepG2 cell viability assay in 384 well format. The class given is toxicity, cell-based. Also noted: dose 125 nL, time 70.5 hour; cytotoxicity at 70.5 h: concentration not given beside the values. To be noted: HepG2 cells, read-out: Inhibition.

`CCc1nc(Nc2cccc(C(=O)NC)c2)c2c(n1)c(C)nn2CC`: the cytotoxicity at 70.5 h is -11%.

Consider `CCn1nc(C)c2ncnc(NCCn3cccn3)c21`, for which the cytotoxicity at 70.5 h was -1.42%.

On to `CCCc1nc(NCC(=O)N2CCOCC2)c2c(n1)c(C)nn2CC`, for which the cytotoxicity at 70.5 h was 44.1%.

In the case of `CCCc1nc(NCCOC)c2c(n1)c(C)nn2CC`, the cytotoxicity at 70.5 h is -7.81%.

For `Cc1nn(C)c2c(NC3CCCC3)nc(C3CC3)nc12`, the cytotoxicity at 70.5 h was -7.15%.

As for `COc1ccc(CNc2nc(C3CC3)nc3c(C)nn(C)c23)cc1`, the cytotoxicity at 70.5 h is -0.926%.

For `CCn1nc(C)c2nc(C(C)C)nc(NCC(C)O)c21` (centres undefined), the cytotoxicity at 70.5 h is -6.78%.

In the case of `CCn1nc(C)c2nc(C(C)C)nc(NCC(C)C)c21`, the cytotoxicity at 70.5 h was -8.62%.

As to `CCCc1nc(NCCCOCC)c2c(n1)c(C)nn2CC`, the cytotoxicity at 70.5 h is -18.2%.

As to `CCCc1nc(N2CCC(C)CC2)c2c(n1)c(C)nn2CC`, the cytotoxicity at 70.5 h is -10.6%.

Turning to `Cc1nn(C)c2c(N(C)Cc3cccs3)nc(C3CC3)nc12`, the cytotoxicity at 70.5 h turned out to be 22.5%.

Consider `Cc1nn(C)c2c(NCc3ccncc3)nc(C3CC3)nc12`, for which the cytotoxicity at 70.5 h is 3.06%.

`CCn1nc(C)c2nc(C(C)C)nc(NCCc3ccc(O)cc3)c21`: the cytotoxicity at 70.5 h is -7.1%.

`CSc1ncnc(NCc2ccco2)c1C#N`: the cytotoxicity at 70.5 h is -12.3%.

As to `Cc1cccc2c1cnn2CCCNC(=O)c1cnn(C)c1`, the cytotoxicity at 70.5 h was -2.01%.

Consider `CCN(CC)C(=O)c1nnsc1-c1ccc(C)cc1`, for which the cytotoxicity at 70.5 h is -8.98%.

As for `Cc1ccc(-c2snnc2C(=O)NCCCO)cc1`, the cytotoxicity at 70.5 h is -11.1%.

As to `COc1cc(C(=O)NCCCO)cc2occc12`, the cytotoxicity at 70.5 h was -9.45%.

Regarding `CCOc1cc(C(=O)N2CCN(C)CC2)cc2occc12`, the cytotoxicity at 70.5 h is 3.95%.

Consider `CCOC(=O)N1CCN(C(=O)c2cc(OCC)c3ccoc3c2)CC1`, for which the cytotoxicity at 70.5 h amounted to 50%.

For the compound `CCOC(=O)C1CCN(C(=O)c2cc(OCC)c3ccoc3c2)CC1`, the cytotoxicity at 70.5 h was -10.7%.

`COCc1cccc(S(=O)(=O)Nc2ncc(C)s2)c1`: the cytotoxicity at 70.5 h was -12.2%.

Turning to `CSCc1cccc(S(=O)(=O)NCc2cnn(C)c2C)c1`, the cytotoxicity at 70.5 h was -2.3%.

Take `COCCNS(=O)(=O)c1cccc(CSC)c1`: the cytotoxicity at 70.5 h worked out at 18.6%.

As to `CSCc1cccc(S(=O)(=O)N2CCCCCC2)c1`, the cytotoxicity at 70.5 h was -4.01%.

For `CSCc1cccc(S(=O)(=O)N2CCCC2)c1`, the cytotoxicity at 70.5 h was -6.64%.

On to `CSCc1cccc(S(=O)(=O)N2CCCCC2)c1`, for which the cytotoxicity at 70.5 h is -6.14%.

As to `CCNS(=O)(=O)c1cccc(CSC)c1`, the cytotoxicity at 70.5 h came out at 5.32%.

For the compound `CCN(CC)c1nc(C)cc(C(=O)Nc2cccc(C(N)=O)c2)n1`, the cytotoxicity at 70.5 h was -7.03%.

As to `Cc1nn(C(C)C)c2cn(CC(=O)NC3CCSCC3)nc12`, the cytotoxicity at 70.5 h was -3.25%.

On to `COc1cccc(CNC(=O)c2cc(C)nc(N3CCCCC3)n2)c1`, for which the cytotoxicity at 70.5 h is -9.69%.

As for `Cc1cc(C(=O)NCc2cnn(C)c2C)nc(N2CCCCCC2)n1`, the cytotoxicity at 70.5 h is -3.96%.

For the compound `CCN1CCN(c2ncc3c(=O)n(Cc4ccco4)ccc3n2)CC1`, the cytotoxicity at 70.5 h was -5.38%.

As for `Oc1ccc(Cl)cc1CNCc1ccccc1Cl`, the cytotoxicity at 70.5 h is -8.63%.

On to `Oc1ccc(Cl)cc1CNCc1ccccc1C(F)(F)F`, for which the cytotoxicity at 70.5 h was -2.09%.

Turning to `Oc1ccc(Cl)cc1CNCc1cccc(C(F)(F)F)c1`, the cytotoxicity at 70.5 h was -12.9%.

Turning to `COc1cccc(CNCc2cccc(Cl)c2)c1O`, the cytotoxicity at 70.5 h is -4.96%.

Take `COc1cccc(CNCc2ccc(F)cc2Cl)c1O`: the cytotoxicity at 70.5 h was -1.41%.

On to `CSc1nc2ccsc2c(=O)n1CC(=O)NC1CCCCC1`, for which the cytotoxicity at 70.5 h is -6.83%.

As to `CSc1nc2ccsc2c(=O)n1CC(=O)N1CCCCC1C` (centres undefined), the cytotoxicity at 70.5 h is -9.11%.

`CSc1nc2ccsc2c(=O)n1CC(=O)N(C)c1ccccc1`: the cytotoxicity at 70.5 h is -4.9%.

`CCN(CC)C(=O)CSc1nc2cc(C)nc-2c(O)n1CC`: the cytotoxicity at 70.5 h was 6.98%.

On to `Cc1cc2nc(SCC(=O)N3CCCC3)n(Cc3ccco3)c(O)c-2n1`, for which the cytotoxicity at 70.5 h was -8.29%.

Take `O=C(c1nn[nH]c1Nc1ccc(Cl)cc1)N1CCSCC1`: the cytotoxicity at 70.5 h was 9.23%.

With `c1cnc(-c2nn3c(CN4CCCCCC4)nnc3s2)cn1`, the cytotoxicity at 70.5 h is -8.05%.

For `Cc1cc(C(=O)N(C)Cc2cccs2)nc(N2CCOCC2)n1`, the cytotoxicity at 70.5 h is -0.782%.

Turning to `CCC(Oc1ccccc1)c1nn2c(CN(CC)CC)nnc2s1` (centres undefined), the cytotoxicity at 70.5 h was -7.01%.

On to `Cc1cc2n(n1)[C@@H](C(F)(F)F)C[C@@H](C1CCCN(C(=O)C(C)C)C1)N2` (some centres undefined), for which the cytotoxicity at 70.5 h is -3.95%.

With `CCCC(=O)N1CCC([C@@H]2C[C@H](C(F)(F)F)n3nc(C)cc3N2)CC1`, the cytotoxicity at 70.5 h was -6.51%.

Consider `Cc1cc2n(n1)[C@@H](C(F)(F)F)C[C@@H](C1CCN(C(=O)C(C)C)CC1)N2`, for which the cytotoxicity at 70.5 h was -1.78%.

Turning to `O=C(CCc1cc(Cl)no1)N1CCC(c2cc3ncccc3cn2)CC1`, the cytotoxicity at 70.5 h is 0.563%.

Regarding `Cc1cc(C)nc(N2CCC(CNC(=O)c3cnccn3)CC2)n1`, the cytotoxicity at 70.5 h is 3.07%.

Turning to `Cc1cc(C)nc(N2CCC(CNC(=O)c3ccccn3)CC2)n1`, the cytotoxicity at 70.5 h worked out at 2.6%.

For the compound `CCCN1C[C@H](NC(=O)c2cc(C)no2)[C@@H](c2ccc(OC)cc2)C1`, the cytotoxicity at 70.5 h worked out at 0.817%.

`CC(=O)c1cc(C(=O)N2Cc3ccccc3OC3(CCOCC3)C2)cs1`: the cytotoxicity at 70.5 h was determined as 6.07%.

On to `Cc1cnc(C(=O)N2Cc3ccccc3OC3(CCOCC3)C2)cn1`, for which the cytotoxicity at 70.5 h stood at 1.74%.

In the case of `Cc1cnc(C(=O)N2Cc3cc(Cl)ccc3OC3(CCOCC3)C2)cn1`, the cytotoxicity at 70.5 h came out at 1.54%.

As for `Nc1nonc1C(=O)N1Cc2ccccc2OC2(CCOCC2)C1`, the cytotoxicity at 70.5 h turned out to be 2.48%.

`O=C(CN1CCC(c2cc(=O)n3c(n2)CCCCC3)CC1)N1CCCC1`: the cytotoxicity at 70.5 h is 1.49%.

For `CCS(=O)(=O)N1C[C@H]2CC[C@](O)(c3ccc(C)cc3)[C@H]2C1`, the cytotoxicity at 70.5 h stood at 2.5%.

As to `Cc1ccc([C@@]2(O)CC[C@@H]3CN(S(=O)(=O)C(C)C)C[C@@H]32)cc1`, the cytotoxicity at 70.5 h stood at 2.49%.

`O=C(Cc1ccccn1)N1CCC(c2noc(-c3ccncc3)n2)CC1`: the cytotoxicity at 70.5 h was 5.1%.

As for `COc1ccccc1C1=NOC(CC2(C(=O)NC(C)C)CCOCC2)C1` (centres undefined), the cytotoxicity at 70.5 h is -4.53%.

Take `CC(C)CNC(=O)C1(Cc2ccccc2-c2cccs2)CCNC1` (centres undefined): the cytotoxicity at 70.5 h was -0.684%.

Regarding `COCCOCC(=O)N1C[C@@H]2CC[C@H](Oc3ccccc3F)[C@@H]2C1`, the cytotoxicity at 70.5 h stood at 12.1%.

For the compound `COCCOCC(=O)N1C[C@@H]2CC[C@H](Oc3cccc(F)c3)[C@@H]2C1`, the cytotoxicity at 70.5 h was -3.05%.

In the case of `CCOCC(=O)N1C[C@@H]2CC[C@H](Oc3ccccc3)[C@@H]2C1`, the cytotoxicity at 70.5 h was -3.41%.

`Nc1nccnc1C1CN(C(=O)c2cnccn2)CCO1` (centres undefined): the cytotoxicity at 70.5 h was -4.25%.

Regarding `O=C(N[C@@H]1CCC[C@@H](N2CCOCC2)[C@@H]1O)c1cnn2cccnc12`, the cytotoxicity at 70.5 h was -1.42%.

`Cc1noc(C)c1-c1ccc(C2CCCN2C(=O)c2cnn(C)c2)nc1` (centres undefined): the cytotoxicity at 70.5 h is -0.651%.

In the case of `Cc1nc2ccc(C(=O)N3C[C@@H](O)[C@H](N4CCN(C)CC4)C3)cc2[nH]1`, the cytotoxicity at 70.5 h is -4.75%.

Consider `CC(=O)N1CCc2nc(C3CCN(C(=O)c4ccccc4)C3)ncc2C1` (centres undefined), for which the cytotoxicity at 70.5 h stood at 0.561%.

Take `COCCN1CCN(Cc2cnc(C(C)C)nc2)CC1`: the cytotoxicity at 70.5 h is 16.4%.

On to `CCc1ncc(CN2CCN(CCOC)CC2)cn1`, for which the cytotoxicity at 70.5 h came to 7.17%.

With `Cc1nc2ccc(C(=O)N3CC[C@H](O)[C@@H](N4CCOCC4)CC3)cc2[nH]1`, the cytotoxicity at 70.5 h stood at 0.0805%.

For `CN(C(=O)c1ccon1)[C@@H]1CCC[C@@H](Oc2ccccc2)[C@@H]1O`, the cytotoxicity at 70.5 h is -1.37%.

Turning to `O[C@H]1CN(Cc2cccc(C(F)(F)F)c2)CC[C@@]12CCCO2`, the cytotoxicity at 70.5 h is 15.6%.

In the case of `CN1CCCC(c2ccnc(C(=O)NCC3CC3)c2)C1` (centres undefined), the cytotoxicity at 70.5 h is -2.35%.

As for `CS(=O)(=O)c1cn[nH]c1C1CCCCN1C(=O)Cc1cccnc1` (centres undefined), the cytotoxicity at 70.5 h stood at 5.76%.

With `CNc1cncc(C2CCCN2S(=O)(=O)c2ccccc2F)n1` (centres undefined), the cytotoxicity at 70.5 h was -0.0855%.

Consider `Cn1nccc1CCC(=O)N1CCOC(c2cnccn2)C1` (centres undefined), for which the cytotoxicity at 70.5 h was -12.6%.

With `Fc1ccccc1OCCc1cc(C2CCNC2)n[nH]1` (centres undefined), the cytotoxicity at 70.5 h is -4.09%.

`Cc1ncc(CN2CCOC(c3ccc(-c4cnn(C)c4)cn3)C2)s1` (centres undefined): the cytotoxicity at 70.5 h is -6.63%.

`Cc1noc(C2(C)CCCN(C(=O)c3cccnc3)C2)n1` (centres undefined): the cytotoxicity at 70.5 h came out at 11.1%.

Consider `O=C(CCc1cccnc1)N1CCC(c2cnccn2)CC1`, for which the cytotoxicity at 70.5 h is -6.11%.

In the case of `Cc1n[nH]c(C)c1-c1cnc(CC2CCCN(S(C)(=O)=O)C2)cn1` (centres undefined), the cytotoxicity at 70.5 h was -10.2%.

Take `Cc1cc(N2CC(c3n[nH]c4nccnc34)C2)ncn1`: the cytotoxicity at 70.5 h was -9.37%.

As for `CNC(=O)c1cn[nH]c1C1(C)CCCN(CC2(O)CCCCC2)C1` (centres undefined), the cytotoxicity at 70.5 h is -6.79%.

As for `Cc1c(C(=O)N2CCC(O)(CN(C)C)C2)c2ccccc2n1C` (centres undefined), the cytotoxicity at 70.5 h is 11%.

As for `Cc1csc2nc3n(c(=O)c12)CCN(Cc1c[nH]cn1)CC3`, the cytotoxicity at 70.5 h was 0.274%.

Regarding `COc1ccccc1CNC(Cc1cccs1)c1nc(C)c(C)s1` (centres undefined), the cytotoxicity at 70.5 h came out at 8.5%.

Regarding `COc1ccc(CNC(Cc2cccs2)c2nc(C)c(C)s2)cc1OC` (centres undefined), the cytotoxicity at 70.5 h stood at 2.99%.

Turning to `COc1cccc(CNC(Cc2cccs2)c2nc(C)c(C)s2)c1OC` (centres undefined), the cytotoxicity at 70.5 h is -1.23%.

For the compound `COc1cccc(C(=O)N2CCc3nc(C4CCCN4)ncc3C2)c1` (centres undefined), the cytotoxicity at 70.5 h is -1.65%.

`COc1ccc(CN2CCn3c(CO)nnc3C2)cc1CN1CCCC1`: the cytotoxicity at 70.5 h is 2.95%.

Turning to `Cc1ccc(CN(CCCn2ccnc2)Cc2c(F)cccc2F)s1`, the cytotoxicity at 70.5 h amounted to 24%.

Regarding `Cc1ccc(CN(CCCn2ccnc2)Cc2cnn(C)c2)s1`, the cytotoxicity at 70.5 h came to 25.9%.

Take `Cc1ccc(O)c(CN(CCCn2ccnc2)Cc2ccc(C)s2)c1`: the cytotoxicity at 70.5 h turned out to be 0.701%.

Take `Cc1ccc(CN(CCCn2ccnc2)Cc2c[nH]nc2C(C)(C)C)s1`: the cytotoxicity at 70.5 h was -0.375%.
